Data set [1] is described as follows: Solubility of hydroxychloroquine (statement). The class given is physicochemical.
A further data set has as its system Sarcoma-180 cells. Description: Inhibitory effect on differentiation of subcutaneously transplanted Sarcoma-180 cells in ICR mice. The settings on record: cisplatin 20 mg/m^2, 12 animals per group, average of two tests. The data set is classed as in vivo. As to the method:
A sarcoma-180 cell suspension having a cell concentration of 2×10^7 cells/ml was transplanted by subcutaneous injection into the inguinal region of all the groups excluding the normal group, thereby inducing solid cancer.
On the final day of the test, the animals were biopsied, and the number of animals in which sarcoma-180 cells stably grew was measured and used as an anticancer index. The same test was carried out twice, and the two measurements were averaged.

We go through two compounds from patent publication US8506973B2, “Injectable anticancer composition for local administration containing hydroxychloroquine” (priority 2009, dated 2013).

As to `CCN(CCO)CCCC(C)Nc1ccnc2cc(Cl)ccc12` (centres unmarked) [hydroxychloroquine], the “solubility at room temperature (in words)” value in data set [1] is “insoluble at room temperature”.
As for `N.N.[Cl][Pt][Cl]` [cisplatin, Cisplatin], the “number of animals in which cancer cells were observed in the inguinal region by biopsy” value with Sarcoma-180 cells was 4.5 animals.
